{"source": "patent US10167346B2", "about": "“Compositions and methods for making alpha-(1,2)-branched alpha-(1,6) oligodextrans” (TATE & LYLE INGREDIENTS FRANCE SAS, priority 2009, dated 2019)", "system": "Caenorhabditis elegans", "assay": "lipid content in the in vivo model Caenorhabditis elegans", "conditions": "positive control, concentration not given", "protocol": "Oligodextrans according to the present invention were evaluated for their effect on lipid content using the in vivo model Caenorhabditis elegans. The substrates evaluated were TLD-1000 (unbranched 1 kDa dextran) and TLD-1030 (1 kDa dextran+32% α-1,2). […] A negative control (DMSO) and positive control (Orlistat) were also included. Each substrate was assayed four times with a total of 120 worms per substrate and concentration."}
{"smiles": "CCCCCCCCCCC[C@@H](C[C@@H]1OC(=O)[C@H]1CCCCCC)OC(=O)[C@H](CC(C)C)NC=O", "note": "[Orlistat]", "values": [{"measurement": "reduction in lipid content", "value": "> 40", "unit": "%"}]}
